Patent US10568879B2 (GALAPAGOS NV, priority 2015, dated 2020)

The compounds below were run against T1, GPR84 (Homo sapiens, UniProt Q9NQS5) (assay: GPR84 [35S]GTPγS binding assay). Settings: 3,3′-diindolylmethane at EC80; membranes from stable cell line over expressing GPR84.
T1 construct: expressed in transfected cells
T1 sequence (Q9NQS5 whole entry): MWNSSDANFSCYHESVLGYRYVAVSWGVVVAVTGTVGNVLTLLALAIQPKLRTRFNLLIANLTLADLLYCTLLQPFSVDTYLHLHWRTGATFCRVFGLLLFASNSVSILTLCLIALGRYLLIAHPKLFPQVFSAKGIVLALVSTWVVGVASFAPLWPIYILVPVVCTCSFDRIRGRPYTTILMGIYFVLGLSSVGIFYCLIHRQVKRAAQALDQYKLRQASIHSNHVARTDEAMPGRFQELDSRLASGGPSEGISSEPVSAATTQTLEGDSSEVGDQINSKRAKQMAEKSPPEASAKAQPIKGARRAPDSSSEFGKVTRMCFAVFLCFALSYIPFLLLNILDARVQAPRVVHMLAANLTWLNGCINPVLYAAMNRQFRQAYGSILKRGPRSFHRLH
Format: biochemical
Experimental: The following assay can be used for determination of GPR84 activation. The [^35S]GTPγS binding assay measures the level of G protein activation following agonist occupation of a GPCR, by determining the binding of the non-hydrolysable analog [^35S]GTPγS to Gα subunits.
The assay is performed in a 96-well plate where the following reagents are added. First 50 μL compound is added into the assay plate, followed by addition of 20 μL 3,3′-diindolylmethane at EC80 concentration (concentration which gives 80% of the activity of GPR84). Then, 30 μL of a mixture consisting of membranes-GTPγS-SpA beads is added [mixture consists of 20 μg/well membranes derived from stable cell line over expressing GPR84 (membranes are pre-incubated with 0.1 μM GDP for 15 min at 4° C.), 0.1 nM [^35S]GTPγS (Perkin Elmer, NEG030) and 0.5 mg/well PVT-WGA SpA beads (Perkin Elmer, RPNQ0001)]. All components are diluted in assay buffer containing 20 mM Tris pH 7.5; 5 mM MgCl2; 250 mM NaCl; 0.05% BSA; 75 μg/mL saponin. After an incubation of 90 min at room temperature, 20 μL CsCl2 0.8 M (MP Biomedicals, 02150589) is added, followed by centrifugation at 2000 rpm during 20 min. Plates are read on a topcount reader (perkin elmer) immediately after centrifugation (readout time, 1 min/well).
`COc1cc2c(cc1OC)-c1c(C)c(=O)cc(NCC3CCCO3)n1CC2` (stereo not drawn) [Compound 2, 9,10-dimethoxy-1-methyl-4-(tetrahydrofuran-2-ylmethylamino)-6,7-dihydrobenzo[a]quinolizin-2-one] was tested, and the IC50 was > 1000 nM. In the case of `Cc1c2n(c(OCC3CCC(C)(C)O3)cc1=O)CCc1cc(OCc3ccccc3)ccc1-2` (stereo not drawn) [Compound 154, 9-benzyloxy-4-[(5,5-dimethyltetrahydrofuran-2-yl)methoxy]-1-methyl-6,7-dihydrobenzo[a]quinolizin-2-one], the IC50 is reported as 0.01 to 100 nM. `Cc1c2n(c(OC[C@@H]3COCCO3)cc1=O)CCc1cc(N(C)CCC(F)(F)F)ccc1-2` [Compound 129, 4-[[(2S)-1,4-dioxan-2-yl]methoxy]-1-methyl-9-[methyl(3,3,3-trifluoropropyl)amino]-6,7-dihydrobenzo[a]quinolizin-2-one] was tested, and the IC50 was 0.01 to 100 nM. With `Cc1c2n(c(OC[C@@H]3COCCO3)cc1=O)CCc1cc(N3CCCC3=O)ccc1-2` [Compound 157, 4-[[(2S)-1,4-dioxan-2-yl]methoxy]-1-methyl-9-(2-oxopyrrolidin-1-yl)-6,7-dihydrobenzo[a]quinolizin-2-one] the IC50 was 500 to 1000 nM. For `Cc1c2n(c(OC[C@@H]3COCCO3)cc1=O)CCc1cc(Sc3ccccc3)ccc1-2` [Compound 64, 4-[[(2S)-1,4-dioxan-2-yl]methoxy]-1-methyl-9-phenylsulfanyl-6,7-dihydrobenzo[a]quinolizin-2-one], the IC50 was 0.01 to 100 nM. `Cc1c2n(c(OC[C@@H]3COCCO3)cc1=O)CCc1cc(N3CCC(C)CC3)ccc1-2` [Compound 141, 4-[[(2S)-1,4-dioxan-2-yl]methoxy]-1-methyl-9-(4-methyl-1-piperidyl)-6,7-dihydrobenzo[a]quinolizin-2-one] was tested, and the IC50 was 0.01 to 100 nM. `Cc1c2n(c(OC[C@@H]3COCCO3)cc1=O)CCc1cc(N3CCCC(C)C3)ccc1-2` (stereo partly drawn) [Compound 116, 4-[[(2S)-1,4-dioxan-2-yl]methoxy]-1-methyl-9-(3-methyl-1-piperidyl)-6,7-dihydrobenzo[a]quinolizin-2-one] was tested, and the IC50 was 0.01 to 100 nM. Work on `Cc1c2n(c(OCC3(C)CCCO3)cc1=O)CCc1cc(OCc3ccccc3)ccc1-2` (stereo not drawn) [Compound 153, 9-benzyloxy-1-methyl-4-[(2-methyltetrahydrofuran-2-yl)methoxy]-6,7-dihydrobenzo[a]quinolizin-2-one] yielded an IC50 of 100 to 500 nM. Work on `Cc1c2n(c(OCC3CCCO3)cc1=O)CCc1cc(OCC3CCCOC3)ccc1-2` (stereo not drawn) [Compound 47, 1-methyl-4-(tetrahydrofuran-2-ylmethoxy)-9-(tetrahydropyran-3-ylmethoxy)-6,7-dihydrobenzo[a]quinolizin-2-one] yielded an IC50 of 0.01 to 100 nM. Work on `[2H]c1c(OC[C@@H]2COCCO2)n2c(c(C)c1=O)-c1ccc(OC([2H])([2H])C([2H])([2H])F)cc1CC2` [Compound 126, 3-deuterio-4-[[(2S)-1,4-dioxan-2-yl]methoxy]-1-methyl-9-(1,1,2,2-tetradeuterio-2-fluoro-ethoxy)-6,7-dihydrobenzo[a]quinolizin-2-one] yielded an IC50 of 0.01 to 100 nM. For `Cc1c2n(c(OC[C@@H]3COCCO3)cc1=O)CCc1cc(N3CCNCC3)ccc1-2` [Compound 66, 4-[[(2S)-1,4-dioxan-2-yl]methoxy]-1-methyl-9-piperazin-1-yl-6,7-dihydrobenzo[a]quinolizin-2-one], the IC50 was > 1000 nM. With `CCOC(=O)N1CCC(Oc2ccc3c(c2)CCn2c(OC[C@@H]4COCCO4)cc(=O)c(C)c2-3)C1` (stereo partly drawn) [Compound 145, ethyl 3-[[4-[[(2S)-1,4-dioxan-2-yl]methoxy]-1-methyl-2-oxo-6,7-dihydrobenzo[a]quinolizin-9-yl]oxy]pyrrolidine-1-carboxylate] the IC50 was 0.01 to 100 nM. Work on `Cc1c2n(c(OC[C@@H]3COCCO3)cc1=O)CCc1cc(OCC(F)(F)C(F)(F)F)ccc1-2` [Compound 155, 4-[[(2S)-1,4-dioxan-2-yl]methoxy]-1-methyl-9-(2,2,3,3,3-pentafluoropropoxy)-6,7-dihydrobenzo[a]quinolizin-2-one] yielded an IC50 of 0.01 to 100 nM. `Cc1c2n(c(OC[C@@H]3COCCO3)cc1=O)CCc1cc(S(=O)(=O)c3ccccc3)ccc1-2` [Compound 67, 9-(benzenesulfonyl)-4-[[(2S)-1,4-dioxan-2-yl]methoxy]-1-methyl-6,7-dihydrobenzo[a]quinolizin-2-one] gave an IC50 of 100 to 500 nM. Work on `Cc1c2n(c(OC[C@@H]3COCCO3)cc1=O)CCc1cc(N3CCC(C)(C)C3)ccc1-2` [Compound 138, 9-(3,3-dimethylpyrrolidin-1-yl)-4-[[(2S)-1,4-dioxan-2-yl]methoxy]-1-methyl-6,7-dihydrobenzo[a]quinolizin-2-one] yielded an IC50 of 0.01 to 100 nM. For `Cc1c2n(c(OC[C@@H]3COCCO3)cc1=O)CCc1cc(N3CC4(COC4)C3)ccc1-2` [Compound 87, 4-[[(2S)-1,4-dioxan-2-yl]methoxy]-1-methyl-9-(6-oxa-2-azaspiro[3.3]heptan-2-yl)-6,7-dihydrobenzo[a]quinolizin-2-one], the IC50 was 500 to 1000 nM. `COC1CN(c2ccc3c(c2)CCn2c(OC[C@@H]4COCCO4)cc(=O)c(C)c2-3)C1` [Compound 110, 4-[[(2S)-1,4-dioxan-2-yl]methoxy]-9-(3-methoxyazetidin-1-yl)-1-methyl-6,7-dihydrobenzo[a]quinolizin-2-one] gave an IC50 of 0.01 to 100 nM. `Cc1c2n(c(OC[C@@H]3COCCO3)cc1=O)CCc1cc(N3CCC(F)(F)C3)ccc1-2` [Compound 131, 9-(3,3-difluoropyrrolidin-1-yl)-4-[[(2S)-1,4-dioxan-2-yl]methoxy]-1-methyl-6,7-dihydrobenzo[a]quinolizin-2-one] was tested, and the IC50 was 0.01 to 100 nM. Compound `Cc1c2n(c(OC[C@@H]3COCCO3)cc1=O)CCc1cc(N3CCCC3)ccc1-2` [Compound 130, 4-[[(2S)-1,4-dioxan-2-yl]methoxy]-1-methyl-9-pyrrolidin-1-yl-6,7-dihydrobenzo[a]quinolizin-2-one] has an IC50 of 0.01 to 100 nM. `Cc1c2n(c(OC[C@@H]3COCCO3)cc1=O)CCc1cc(N3CC(C)CC(C)C3)ccc1-2` (stereo partly drawn) [Compound 137, 9-(3,5-dimethyl-1-piperidyl)-4-[[(2S)-1,4-dioxan-2-yl]methoxy]-1-methyl-6,7-dihydrobenzo[a]quinolizin-2-one] gave an IC50 of 0.01 to 100 nM. Compound `Cc1c2n(c(OC[C@@H]3COCCO3)cc1=O)CCc1cc(N3CC(C(C)(C)O)C3)ccc1-2` [Compound 92, 4-[[(2S)-1,4-dioxan-2-yl]methoxy]-9-[3-(1-hydroxy-1-methyl-ethyl)azetidin-1-yl]-1-methyl-6,7-dihydrobenzo[a]quinolizin-2-one] has an IC50 of 100 to 500 nM. Compound `[2H]c1c(OC[C@@H]2COCCO2)n2c(c(C)c1=O)-c1ccc(OCC(F)(F)F)cc1CC2` [Compound 125, 3-deuterio-4-[[(2S)-1,4-dioxan-2-yl]methoxy]-1-methyl-9-(2,2,2-trifluoroethoxy)-6,7-dihydrobenzo[a]quinolizin-2-one] has an IC50 of 0.01 to 100 nM. `Cc1c2n(c(OC[C@@H]3COCCO3)cc1=O)CCc1cc(N3CCC(Oc4cccnc4)CC3)ccc1-2` [Compound 121, 4-[[(2S)-1,4-dioxan-2-yl]methoxy]-1-methyl-9-[4-(3-pyridyloxy)-1-piperidyl]-6,7-dihydrobenzo[a]quinolizin-2-one] showed an IC50 of 0.01 to 100 nM. With `Cc1c2n(c(OC[C@@H]3COCCO3)cc1=O)CCc1ccccc1-2` [Compound 156, 4-[[(2S)-1,4-dioxan-2-yl]methoxy]-1-methyl-6,7-dihydrobenzo[a]quinolizin-2-one] the IC50 was 100 to 500 nM. Compound `Cc1c2n(c(OC[C@@H]3COCCO3)cc1=O)CCc1cc(N3CCCC(F)(F)C3)ccc1-2` [Compound 123, 9-(3,3-difluoro-1-piperidyl)-4-[[(2S)-1,4-dioxan-2-yl]methoxy]-1-methyl-6,7-dihydrobenzo[a]quinolizin-2-one] has an IC50 of 0.01 to 100 nM. `Cc1c2n(c(OC[C@@H]3COCCO3)cc1=O)CCc1cc(-c3ccncc3)ccc1-2` [Compound 100, 4-[[(2S)-1,4-dioxan-2-yl]methoxy]-1-methyl-9-(4-pyridyl)-6,7-dihydrobenzo[a]quinolizin-2-one] showed an IC50 of 0.01 to 100 nM. `Cc1c2n(c(OC[C@@H]3CCCO3)cc1=O)CCc1cc(OCc3ccccn3)ccc1-2` [Compound 57, 1-methyl-9-(2-pyridylmethoxy)-4-[[(2S)-tetrahydrofuran-2-yl]methoxy]-6,7-dihydrobenzo[a]quinolizin-2-one] gave an IC50 of 0.01 to 100 nM. `Cc1c2n(c(OC[C@@H]3COCCO3)cc1=O)CCc1cc(C3CCN(C(=O)OC(C)(C)C)CC3)ccc1-2` [Compound 75, tert-butyl 4-[4-[[(2S)-1,4-dioxan-2-yl]methoxy]-1-methyl-2-oxo-6,7-dihydrobenzo[a]quinolizin-9-yl]piperidine-1-carboxylate] gave an IC50 of 0.01 to 100 nM. For `Cc1c2n(c(OCC3CCCCO3)cc1=O)CCc1cc(OCc3ccccc3)ccc1-2` (stereo not drawn) [Compound 109, 9-benzyloxy-1-methyl-4-(tetrahydropyran-2-ylmethoxy)-6,7-dihydrobenzo[a]quinolizin-2-one], the IC50 was 0.01 to 100 nM. With `Cc1c2n(c(OC[C@@H]3COCCO3)cc1=O)CCc1cc(-c3cccnc3)ccc1-2` [Compound 98, 4-[[(2S)-1,4-dioxan-2-yl]methoxy]-1-methyl-9-(3-pyridyl)-6,7-dihydrobenzo[a]quinolizin-2-one] the IC50 was 100 to 500 nM.
